From the supplement of paper PMC8960247
± gives the standard error.

How the values were obtained:
UMB1949 (TSC2-deficient) = experiment: relative viability vs DMSO (fraction); higher = less cytotoxic; details: serum: 0.1% FBS, 72 h;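 further: renal angiomyolipoma cell lines screened in 384-well plates, viability normalized per plate to DMSO-treated cells, each plate carrying 50 nM rapamycin and 1 µM staurosporine controls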
621-102 (TSC2-deficient) [1] = experiment: as above; details: serum: 0.1% FBS, 72 h
621-103 (TSC2-rescued) = experiment: relative viability vs DMSO; higher = less cytotoxic; details: serum: 10% FBS, 72 h
621-102 (TSC2-deficient) [2] = experiment: as above; details: serum: 10% FBS, 72 h

Row | SMILES | relative viability (UMB1949 (TSC2-deficient); 0.0128 nM) | relative viability (UMB1949 (TSC2-deficient); 0.064 nM) | relative viability (UMB1949 (TSC2-deficient); 0.32 nM) | relative viability (UMB1949 (TSC2-deficient); 1.6 nM) | relative viability (UMB1949 (TSC2-deficient); 8 nM) | relative viability (UMB1949 (TSC2-deficient); 40 nM) | relative viability (UMB1949 (TSC2-deficient); 200 nM) | relative viability (UMB1949 (TSC2-deficient); 1000 nM) | relative viability (UMB1949 (TSC2-deficient); 5000 nM) | relative viability (621-102 (TSC2-deficient) [1]; 0.0128 nM) | relative viability (621-102 (TSC2-deficient) [1]; 0.064 nM) | relative viability (621-102 (TSC2-deficient) [1]; 0.32 nM) | relative viability (621-102 (TSC2-deficient) [1]; 1.6 nM) | relative viability (621-102 (TSC2-deficient) [1]; 8 nM) | relative viability (621-102 (TSC2-deficient) [1]; 40 nM) | relative viability (621-102 (TSC2-deficient) [1]; 200 nM) | relative viability (621-102 (TSC2-deficient) [1]; 1000 nM) | relative viability (621-102 (TSC2-deficient) [1]; 5000 nM) | relative viability (621-103 (TSC2-rescued); 0.0001 µM) | relative viability (621-103 (TSC2-rescued); 0.001 µM) | relative viability (621-103 (TSC2-rescued); 0.01 µM) | relative viability (621-103 (TSC2-rescued); 0.1 µM) | relative viability (621-103 (TSC2-rescued); 1 µM) | relative viability (621-103 (TSC2-rescued); 10 µM) | relative viability (621-102 (TSC2-deficient) [2]; 0.0001 µM) | relative viability (621-102 (TSC2-deficient) [2]; 0.001 µM) | relative viability (621-102 (TSC2-deficient) [2]; 0.01 µM) | relative viability (621-102 (TSC2-deficient) [2]; 0.1 µM) | relative viability (621-102 (TSC2-deficient) [2]; 1 µM) | relative viability (621-102 (TSC2-deficient) [2]; 10 µM)
1 | O=C(Cc1ccc(-c2ccc(OCCN3CCOCC3)cc2)cn1)NCc1ccccc1 [KX2-391] | 1.23 | 1.1 | 1.12 | 1.01 | 0.0594 | 0.00501 | 0.00135 | 0.00316 | 0.00418 | 1.18 | 0.965 | 1.06 | 0.813 | 0.205 | 0.0932 | 0.069 | 0.0401 | 0.0343 | 101 ± 3.5% | 96.4 ± 5.7% | 58.7 ± 3.5% | 50.8 ± 1% | 33.05 ± 0.28% | 34.1 ± 1.5% | 90.4 ± 1.4% | 98.1 ± 14% | 70 ± 2.2% | 47.7 ± 0.7% | 35.2 ± 2.1% | 37.3 ± 0.46%
2 | O=C(/C=C/c1ccc(CN(CCO)CCc2c[nH]c3ccccc23)cc1)NO [LAQ824] | 1.01 | 0.942 | 0.887 | 0.67 | 0.0147 | 0.00199 | 0.000488 | 0.000621 | 0.000364 | 1.04 | 0.934 | 0.921 | 0.89 | 0.628 | 0.173 | 0.0545 | 0.00134 | 0.000846 | 94.4 ± 1.2% | 94.1 ± 1.4% | 67.9 ± 1.9% | 21.1 ± 0.62% | 2.61 ± 0.065% | 1.459 ± 0.0077% | 92.2 ± 3.3% | 87.2 ± 0.88% | 83.3 ± 3.2% | 54.8 ± 0.8% | 31.7 ± 1.1% | 16.2 ± 0.46%
3 | CC(C)C[C@H](NC(=O)CNC(=O)c1cc(Cl)ccc1Cl)B(O)O [MLN2238] | 0.999 | 1.11 | 1.04 | 1.06 | 0.886 | 0.00829 | 0.00329 | 0.000634 | 0.000752 | 1.04 | 1.1 | 0.991 | 1.15 | 0.999 | 0.243 | 0.0069 | 0.000706 | 0.00111 | 100.04 ± 0.065% | 102.4 ± 0.21% | 103 ± 0.3% | 6.24 ± 0.3% | 1.63 ± 0.11% | 0.879 ± 0.059% | 113.5 ± 0.41% | 107.81 ± 0.071% | 109 ± 2.2% | 33.7 ± 7.2% | 4.42 ± 0.32% | 1.79 ± 0.047%
4 | COc1cc(Nc2ncc3c(n2)-c2ccc(Cl)cc2C(c2c(F)cccc2OC)=NC3)ccc1C(=O)O [MLN8237] | 0.99 | 0.824 | 0.525 | 0.215 | 0.146 | 0.0466 | 0.0216 | 0.0132 | 0.0159 | 0.864 | 0.862 | 0.767 | 0.248 | 0.118 | 0.0792 | 0.0576 | 0.0449 | 0.0354 | 103 ± 2.5% | 103.9 ± 0.17% | 98.7 ± 2.3% | 93.8 ± 1% | 91.1 ± 1.4% | 74.62 ± 0.32% | 102 ± 2.6% | 87.64 ± 0.83% | 95.68 ± 0.57% | 87.6 ± 0.9% | 74.6 ± 5.1% | 69.9 ± 2.5%
